Among the data in the supplement of paper PMC10627819 are Bliss interaction score values, retold here.

Holding throughout (test): Bliss interaction score (quartile over a dose matrix) (fitness difference); higher = more antagonism (negative = synergy)
In one experiment the test system is S. aureus Newman. An outline of the steps: (§1)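 Growth was read as OD595 when cultures entered stationary phase, and each value was divided by the plate's robust no-drug mean and capped at 1. This normalised ratio is the fitness value, and fitness for each single drug came from the combination data. The Bliss score subtracts the expected fitness, taken as the product, from the observed fitness and is given as quartiles across technical, biological and donor/recipient replicates.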

The test system of a further experiment is B. subtilis 168. In a few lines:
as §1

For another experiment, the system named is S. pneumoniae D39V. An outline of the steps: as §1
Another experiment has as its system S. aureus DSM 20231. In a few lines: as §1
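Further: first quartile when negative (synergy) and third quartile when positive (antagonism).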

As to `CO[C@@]12[C@H](COC(N)=O)C3=C(C(=O)C(C)=C(N)C3=O)N1C[C@@H]1N[C@@H]12` [MitomycinC] + C/C(=C\C(=O)OCCCCCCCCC(=O)O)C[C@@H]1OC[C@H](C[C@@H]2O[C@H]2[C@@H](C)[C@H](C)O)[C@@H](O)[C@H]1O [Pseudomonic acid], the Bliss interaction score is -0.0169 in the experiment on S. aureus Newman, -0.0185 in the experiment on B. subtilis 168, -0.0895 in the experiment with S. pneumoniae D39V and -0.011 in the experiment with S. aureus DSM 20231.

In the case of `CO[C@@]12[C@H](COC(N)=O)C3=C(C(=O)C(C)=C(N)C3=O)N1C[C@@H]1N[C@@H]12` [MitomycinC] + CC1(C)S[C@@H]2[C@H](NC(=O)Cc3ccccc3)C(=O)N2[C@H]1C(=O)O [PenicillinG], the Bliss interaction score is -0.0455 with S. aureus Newman, -0.0602 with B. subtilis 168, 0.103 with S. pneumoniae D39V and -0.0709 in the experiment with S. aureus DSM 20231.

As for `CO[C@@]12[C@H](COC(N)=O)C3=C(C(=O)C(C)=C(N)C3=O)N1C[C@@H]1N[C@@H]12` [MitomycinC] + CC1=C\[C@@H](O)CC(=O)Cc2nc(co2)C(=O)N2CCC=C2C(=O)O[C@H](C(C)C)[C@H](C)/C=C/C(=O)NC\C=C\1 [Virginiamycin M1], the Bliss interaction score was -0.059 with S. aureus Newman, 0.0757 with B. subtilis 168, 0.0805 with S. pneumoniae D39V and 0.0401 with S. aureus DSM 20231.

For `CO[C@@]12[C@H](COC(N)=O)C3=C(C(=O)C(C)=C(N)C3=O)N1C[C@@H]1N[C@@H]12` [MitomycinC] + CCC(C)C1C(=O)NC(=C)C(=O)NC(C(=O)NC(CSCC(C(=O)N1)NC(=O)/C(=C/C)/NC(=O)C(C(C)CC)N)C(=O)NC2C(SCC(NC(=O)CNC(=O)C3CCCN3C2=O)C(=O)NC(CCCCN)C(=O)NC4C(SCC(NC(=O)CNC(=O)C(NC(=O)C(NC(=O)C(NC(=O)CNC4=O)C)CC(C)C)CCSC)C(=O)NC(CC(=O)N)C(=O)NC(CCSC)C(=O)NC(CCCCN)C(=O)NC5C(SCC6C(=O)NC(C(=O)NC(CSC(C(C(=O)N6)NC(=O)C(NC5=O)C)C)C(=O)NC(CO)C(=O)NC(C(C)CC)C(=O)NC(CC7=CN=CN7)C(=O)NC(C(C)C)C(=O)NC(=C)C(=O)NC(CCCCN)C(=O)O)CC8=CN=CN8)C)C)C)CC(C)C [Nisin], the Bliss interaction score in the experiment with S. aureus Newman (main component drawn) is -0.0537; with B. subtilis 168 (main component drawn) it was -0.0279; in the experiment with S. pneumoniae D39V (main component drawn), -0.0423; with S. aureus DSM 20231 (main component drawn) it was -0.242.

Consider `CO[C@@]12[C@H](COC(N)=O)C3=C(C(=O)C(C)=C(N)C3=O)N1C[C@@H]1N[C@@H]12` [MitomycinC] + CCCCCCCCCC(=O)N[C@@H]1[C@H]([C@@H]([C@H](O[C@H]1OC2=C3C=C4C=C2OC5=C(C=C(C=C5)[C@H]([C@H]6C(=O)N[C@@H](C7=C(C(=CC(=C7)O)OC8[C@H]([C@H]([C@@H]([C@H](O8)CO)O)O)O)C9=C(C=CC(=C9)[C@H](C(=O)N6)NC(=O)[C@@H]4NC(=O)[C@@H]1C2=CC(=CC(=C2)OC2=C(C=CC(=C2)[C@H](C(=O)N[C@H](CC2=CC(=C(O3)C=C2)Cl)C(=O)N1)N)O)O)O)C(=O)O)O[C@H]1[C@@H]([C@H]([C@@H]([C@H](O1)CO)O)O)NC(=O)C)Cl)CO)O)O [Teicoplanin], for which the Bliss interaction score was -0.228 in the experiment with S. aureus Newman (main component drawn), -0.0487 with B. subtilis 168 (main component drawn), -0.0795 in the experiment on S. pneumoniae D39V (main component drawn) and -0.126 with S. aureus DSM 20231 (main component drawn).

`CO[C@@]12[C@H](COC(N)=O)C3=C(C(=O)C(C)=C(N)C3=O)N1C[C@@H]1N[C@@H]12` [MitomycinC] + CCN(CC)CCOC(=O)c1ccc(N)cc1 [Procaine]: the Bliss interaction score in the experiment on S. aureus Newman worked out at 0.0275; with B. subtilis 168, 0.0575; in the experiment on S. pneumoniae D39V, 0.0639; in the experiment with S. aureus DSM 20231, 0.0322.

Turning to `CO[C@@]12[C@H](COC(N)=O)C3=C(C(=O)C(C)=C(N)C3=O)N1C[C@@H]1N[C@@H]12` [MitomycinC] + CC[C@H]1OC(=O)[C@H](C)C(=O)[C@H](C)[C@@H](O[C@@H]2O[C@H](C)C[C@H](N(C)C)[C@H]2O)[C@](C)(OC)C[C@@H](C)C(=O)[C@H](C)[C@H]2N(CCCCn3cnc(-c4cccnc4)c3)C(=O)O[C@]12C [Telithromycin], the Bliss interaction score with S. aureus Newman was -0.0269; in the experiment on B. subtilis 168, 0.0694; with S. pneumoniae D39V, -0.102; in the experiment with S. aureus DSM 20231, -0.0567.

For the compound `CO[C@@]12[C@H](COC(N)=O)C3=C(C(=O)C(C)=C(N)C3=O)N1C[C@@H]1N[C@@H]12` [MitomycinC] + CN1C2=CC=CC=C2N=C3C1=CC=CC3=O [Pyocyanin], the Bliss interaction score was -0.0681 in the experiment on S. aureus Newman, 0.0608 with B. subtilis 168, 0.0705 in the experiment with S. pneumoniae D39V and 0.0464 in the experiment with S. aureus DSM 20231.

Regarding `CO[C@@]12[C@H](COC(N)=O)C3=C(C(=O)C(C)=C(N)C3=O)N1C[C@@H]1N[C@@H]12` [MitomycinC] + CN(C)c1cc(NC(=O)CNC(C)(C)C)c(O)c2c1C[C@H]1C[C@H]3[C@H](N(C)C)C(O)=C(C(N)=O)C(=O)[C@@]3(O)C(O)=C1C2=O [Tigecycline], the Bliss interaction score in the experiment with S. aureus Newman is -0.0488; in the experiment on B. subtilis 168 it was 0.245; in the experiment with S. pneumoniae D39V, 0.0464; with S. aureus DSM 20231 it was 0.0285.

Regarding `CO[C@@]12[C@H](COC(N)=O)C3=C(C(=O)C(C)=C(N)C3=O)N1C[C@@H]1N[C@@H]12` [MitomycinC] + CN(N=O)C(=O)N[C@@H](C=O)[C@@H](O)[C@H](O)[C@H](O)CO [Streptozotocin], the Bliss interaction score is 0.0483 with S. aureus Newman, -0.037 in the experiment on B. subtilis 168, -0.0613 with S. pneumoniae D39V and 0.0493 in the experiment with S. aureus DSM 20231.

As for `CO[C@@]12[C@H](COC(N)=O)C3=C(C(=O)C(C)=C(N)C3=O)N1C[C@@H]1N[C@@H]12` [MitomycinC] + CN[C@@H]1[C@H](O)[C@H](NC)[C@H]2O[C@@]3(O)C(=O)C[C@@H](C)O[C@H]3O[C@@H]2[C@H]1O [Spectinomycin], the Bliss interaction score was -0.0974 in the experiment with S. aureus Newman, 0.0749 with B. subtilis 168, -0.06 in the experiment on S. pneumoniae D39V and 0.0772 in the experiment on S. aureus DSM 20231.

As for `CO[C@@]12[C@H](COC(N)=O)C3=C(C(=O)C(C)=C(N)C3=O)N1C[C@@H]1N[C@@H]12` [MitomycinC] + CN[C@@H]1[C@H](O[C@H]2[C@H](O[C@H]3[C@H](O)[C@@H](O)[C@H](N=C(N)N)[C@@H](O)[C@@H]3N=C(N)N)O[C@@H](C)[C@]2(O)C=O)O[C@@H](CO)[C@H](O)[C@H]1O [Streptomycin], the Bliss interaction score with S. aureus Newman is -0.078; with B. subtilis 168 it was -0.21; with S. pneumoniae D39V, -0.072; in the experiment with S. aureus DSM 20231, -0.117.

Turning to `CO[C@@]12[C@H](COC(N)=O)C3=C(C(=O)C(C)=C(N)C3=O)N1C[C@@H]1N[C@@H]12` [MitomycinC] + CN[C@H](CC(C)C)C(=O)N[C@H]1C(=O)N[C@@H](CC(N)=O)C(=O)N[C@H]2C(=O)N[C@H]3C(=O)N[C@H](C(=O)N[C@H](C(=O)O)c4cc(O)cc(O)c4-c4cc3ccc4O)[C@H](O)c3ccc(c(Cl)c3)Oc3cc2cc(c3O[C@@H]2O[C@H](CO)[C@@H](O)[C@H](O)[C@H]2O[C@H]2C[C@](C)(N)[C@H](O)[C@H](C)O2)Oc2ccc(cc2Cl)[C@H]1O [Vancomycin], the Bliss interaction score with S. aureus Newman is -0.0526; with B. subtilis 168, 0.0157; in the experiment with S. pneumoniae D39V, 0.124; in the experiment on S. aureus DSM 20231, 0.0497.
